Experimental data reported in ChEMBL document CHEMBL2176885, “Structural basis for the potent and selective inhibition of casein kinase 1 epsilon” (J Med Chem, 2012).
Substitutions are numbered along the chain they refer to.

Tests used:
[1] = system: T1, Casein kinase I isoform epsilon (Homo sapiens), P49674 [K69R]; assay: Binding affinity to human CK1epsilon K69R mutant assessed as change in melting temperature by differential scanning fluorimetry
T1 sequence (whole entry): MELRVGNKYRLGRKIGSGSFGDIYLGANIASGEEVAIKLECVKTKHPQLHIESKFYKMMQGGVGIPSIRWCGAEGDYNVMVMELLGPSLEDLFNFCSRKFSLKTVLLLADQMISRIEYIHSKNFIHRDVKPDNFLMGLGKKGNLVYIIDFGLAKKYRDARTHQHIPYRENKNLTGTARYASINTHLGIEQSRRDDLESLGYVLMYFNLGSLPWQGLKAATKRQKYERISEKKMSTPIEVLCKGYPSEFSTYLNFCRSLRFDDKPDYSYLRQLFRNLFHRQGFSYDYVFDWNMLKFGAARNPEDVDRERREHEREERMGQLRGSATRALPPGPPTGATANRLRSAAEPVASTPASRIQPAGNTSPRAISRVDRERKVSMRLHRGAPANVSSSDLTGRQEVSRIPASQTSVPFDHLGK

[2] = system: T2, Casein kinase I isoform epsilon (Homo sapiens), P49674 [S67T]; assay: Binding affinity to human CK1epsilon S67T mutant assessed as change in melting temperature by differential scanning fluorimetry
T2 sequence (whole entry): T1 sequence (whole entry) with S67T, R69K

[3] = system: T3, Casein kinase I isoform epsilon (Homo sapiens), P49674 [F55I]; assay: Binding affinity to human CK1epsilon F55I mutant assessed as change in melting temperature by differential scanning fluorimetry
T3 sequence (whole entry): T1 sequence (whole entry) with F55I, R69K

[4] = target: Casein kinase I isoform epsilon (Homo sapiens) (UniProt P49674); assay: Binding affinity to wild type human CK1epsilon (1-294 amino acids) assessed as change in melting temperature by differential scanning fluorimetry
Casein kinase I isoform epsilon (Homo sapiens), sequence (P49674 whole entry, looked up, the tested form may be a part, canonical isoform): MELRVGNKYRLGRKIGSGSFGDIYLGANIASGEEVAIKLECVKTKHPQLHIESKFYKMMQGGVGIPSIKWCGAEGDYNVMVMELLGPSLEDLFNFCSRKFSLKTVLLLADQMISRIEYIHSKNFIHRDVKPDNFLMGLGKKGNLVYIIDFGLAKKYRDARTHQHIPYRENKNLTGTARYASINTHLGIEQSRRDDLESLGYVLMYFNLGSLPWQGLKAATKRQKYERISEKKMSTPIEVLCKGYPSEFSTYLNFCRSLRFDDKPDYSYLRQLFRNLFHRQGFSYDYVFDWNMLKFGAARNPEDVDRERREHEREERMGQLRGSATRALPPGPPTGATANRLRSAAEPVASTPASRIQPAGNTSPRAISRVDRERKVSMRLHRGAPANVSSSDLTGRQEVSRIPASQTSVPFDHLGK

[5] = system: T4, Casein kinase I isoform delta (Homo sapiens), P48730 [R69K]; assay: Binding affinity to human CK1delta R69K mutant assessed as change in melting temperature by differential scanning fluorimetry
T4 sequence (whole entry): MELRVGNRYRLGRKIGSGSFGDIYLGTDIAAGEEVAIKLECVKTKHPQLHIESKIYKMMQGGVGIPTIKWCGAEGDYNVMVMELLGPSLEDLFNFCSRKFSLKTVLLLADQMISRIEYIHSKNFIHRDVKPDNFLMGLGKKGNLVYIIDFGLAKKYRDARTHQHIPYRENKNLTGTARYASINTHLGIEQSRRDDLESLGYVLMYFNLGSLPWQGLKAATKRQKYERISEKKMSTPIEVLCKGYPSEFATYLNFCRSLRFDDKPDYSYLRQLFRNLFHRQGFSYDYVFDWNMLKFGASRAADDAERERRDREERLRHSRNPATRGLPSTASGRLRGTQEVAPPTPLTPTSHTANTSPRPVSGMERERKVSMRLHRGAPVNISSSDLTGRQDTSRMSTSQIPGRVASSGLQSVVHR

[6] = system: T5, Casein kinase I isoform delta (Homo sapiens), P48730 [T67S]; assay: Binding affinity to human CK1delta T67S mutant assessed as change in melting temperature by differential scanning fluorimetry
T5 sequence (whole entry): T4 sequence (whole entry) with T67S, K69R

[7] = target: Casein kinase I isoform delta (Homo sapiens) (UniProt P48730); assay: Binding affinity to wild type human CK1delta (1-294 amino acids) assessed as change in melting temperature by differential scanning fluorimetry
Casein kinase I isoform delta (Homo sapiens), sequence (P48730 whole entry, looked up, the tested form may be a part, canonical isoform): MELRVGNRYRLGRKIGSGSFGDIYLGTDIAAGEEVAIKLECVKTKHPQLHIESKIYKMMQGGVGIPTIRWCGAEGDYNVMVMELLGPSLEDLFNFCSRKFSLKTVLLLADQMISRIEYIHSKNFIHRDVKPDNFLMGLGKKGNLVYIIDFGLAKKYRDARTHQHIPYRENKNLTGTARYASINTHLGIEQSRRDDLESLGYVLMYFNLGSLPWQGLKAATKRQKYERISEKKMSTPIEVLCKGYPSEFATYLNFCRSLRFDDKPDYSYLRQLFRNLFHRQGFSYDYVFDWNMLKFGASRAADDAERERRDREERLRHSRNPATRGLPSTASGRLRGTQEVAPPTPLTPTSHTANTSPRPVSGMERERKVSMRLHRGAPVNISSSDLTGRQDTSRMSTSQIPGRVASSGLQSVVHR

[8] = system: T6, Casein kinase I isoform delta (Homo sapiens), P48730 [I55F]; assay: Binding affinity to human CK1delta I55F mutant assessed as change in melting temperature by differential scanning fluorimetry
T6 sequence (whole entry): T4 sequence (whole entry) with I55F, K69R

ΔTm [1] | ΔTm [2] | ΔTm [3] | ΔTm [4] | ΔTm [5] | ΔTm [6] | ΔTm [7] | ΔTm [8] | SMILES
8.6 °C | 8.6 °C | 10.4 °C | 8.6 °C | 9.6 °C | 9.6 °C | 9.6 °C | 9.6 °C | Nc1nccc(-c2c(-c3ccc(F)cc3)ncn2C2CCCCC2)n1
11.5 °C | 11.5 °C | 6.4 °C | 11.5 °C | 4.8 °C | 4.8 °C | 4.8 °C | 13.2 °C | Nc1ncnc2c1c(COc1cccc(Cl)c1)nn2C1CCOCC1
